Reference: ChEMBL document CHEMBL1201862, “PubChem BioAssay data set” (2004)
The source made the active and inactive calls.

Legend:
[1] = M. tuberculosis H37Rv growth inhibitors, H37Rv strain (AID 1626); type: functional
[2] = molecular target: T1, Mannose-6-phosphate isomerase (Homo sapiens, UniProt P34949); experiment: human PMI inhibitors, high substrate, primary screen, biochemical, fluorescence intensity, high mannose 6-phosphate (AID 1220)
T1 sequence (P34949 whole entry): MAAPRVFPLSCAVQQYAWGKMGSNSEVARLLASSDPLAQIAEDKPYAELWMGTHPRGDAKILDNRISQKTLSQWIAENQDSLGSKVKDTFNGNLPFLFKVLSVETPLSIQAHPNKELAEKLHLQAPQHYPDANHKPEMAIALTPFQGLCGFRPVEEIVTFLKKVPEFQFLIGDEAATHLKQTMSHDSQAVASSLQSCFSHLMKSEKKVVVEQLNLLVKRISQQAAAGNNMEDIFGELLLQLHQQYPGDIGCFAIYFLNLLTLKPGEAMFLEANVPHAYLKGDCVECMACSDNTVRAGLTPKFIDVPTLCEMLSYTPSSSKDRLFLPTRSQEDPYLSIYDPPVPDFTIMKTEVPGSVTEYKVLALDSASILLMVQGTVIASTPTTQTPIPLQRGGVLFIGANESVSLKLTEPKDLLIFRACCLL

Protein RecA = molecular target: T2, Protein RecA (Mycobacterium tuberculosis, UniProt P9WHJ3); experiment: Fluorescence Cell-Free Homogeneous Dose Retest to Identify Inhibitors of RecA-Intein Splicing Activity. [Related pubchem assays (depositor defined):AID2097, AID2223, AID489010, AID492950]; type: functional
T2 sequence (P9WHJ3 whole entry): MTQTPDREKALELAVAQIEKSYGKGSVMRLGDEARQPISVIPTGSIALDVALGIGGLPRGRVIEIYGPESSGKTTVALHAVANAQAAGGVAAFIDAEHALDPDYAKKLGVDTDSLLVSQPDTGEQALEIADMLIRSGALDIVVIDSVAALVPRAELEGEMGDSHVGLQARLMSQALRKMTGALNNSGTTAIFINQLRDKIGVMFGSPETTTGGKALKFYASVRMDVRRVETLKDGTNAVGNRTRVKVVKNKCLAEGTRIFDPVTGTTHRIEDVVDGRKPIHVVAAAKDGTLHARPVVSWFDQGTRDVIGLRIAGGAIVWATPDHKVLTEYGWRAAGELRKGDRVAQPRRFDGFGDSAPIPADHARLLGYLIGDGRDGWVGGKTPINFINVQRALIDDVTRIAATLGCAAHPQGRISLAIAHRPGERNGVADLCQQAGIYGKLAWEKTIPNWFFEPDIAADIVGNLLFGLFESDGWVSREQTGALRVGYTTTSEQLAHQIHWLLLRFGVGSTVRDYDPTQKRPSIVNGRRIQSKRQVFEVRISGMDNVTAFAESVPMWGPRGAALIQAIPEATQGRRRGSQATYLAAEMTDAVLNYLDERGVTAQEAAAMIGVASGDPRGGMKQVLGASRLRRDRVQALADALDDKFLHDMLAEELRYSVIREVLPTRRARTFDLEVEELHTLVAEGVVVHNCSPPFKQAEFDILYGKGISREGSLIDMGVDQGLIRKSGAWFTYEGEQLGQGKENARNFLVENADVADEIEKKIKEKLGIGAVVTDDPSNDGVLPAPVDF

Cytochrome P450 2C19 = Cytochrome P450 2C19 (Homo sapiens, UniProt P33261); experiment: qHTS Assay for Inhibitors and Substrates of Cytochrome P450 2C19. [Related pubchem assays: 410 ]; type: ADME; settings: read-out: Potency
Cytochrome P450 3A4 = Cytochrome P450 3A4 (Homo sapiens, UniProt P08684); settings: Potency;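 further: confirmatory qHTS run detecting inhibitors and substrates of CYP3A4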
[3] = Luminescence Cell-Based Dose Response HTS to Identify Activators of Luciferase Translation or Activity in H4 […] Cells. [Related pubchem assays: 1829 (Project Summary), 1814 (Primary HTS)]; type: functional
H4 = experiment: Luminescence Cell-Based Dose Response HTS to Identify Activators of 5'UTR Stem-Loop Driven Prion Protein mRNA Translation in H4 Neuroglioblastoma Cells. [Related pubchem assays: 1829 (Project Summary), 1814 (Primary HTS)]; type: functional; settings: Homo sapiens
[4] = molecular target: Aryl hydrocarbon receptor (Homo sapiens, UniProt P35869); experiment: Luminescence-based cell-based high throughput dose response assay for activators of the Aryl Hydrocarbon Receptor (AHR). [Related pubchem assays: 2796 (Primary screen (AHR activators in singlicate)), 2845 (Confirmation screen (AHR activators in triplicate)), 434939 (Counterscreen (PXR activators in triplicate)), 2804 (Summary (AHR activators))]; type: ADME
[5] = molecular target: Peroxisome proliferator-activated receptor gamma/Nuclear receptor corepressor 2 (Homo sapiens, UniProt P37231+Q9Y618); experiment: Counterscreen for NR2E3 inverse agonists: TR-FRET-based biochemical high throughput dose response assay to identify inverse agonists of the interaction between peroxisome proliferator-activated receptor gamma (PPARg) and nuclear receptor co-repressor 2 (NCOR2).; type: functional
[6] = molecular target: Photoreceptor-specific nuclear receptor (Homo sapiens, UniProt Q9Y5X4); experiment: NR2E3 inverse agonists, dose response, biochemical, TR-FRET (AID 463256); type: functional
[7] = molecular target: Epstein-Barr nuclear antigen 1 (Epstein-Barr virus (strain B95-8) (HHV-4) (Human herpesvirus 4), UniProt P03211); experiment: EBNA-1 inhibitors, dose response, biochemical, fluorescence polarization, 1536-well (AID 2381); set-up: species or system human gammaherpesvirus 4;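 further: fluorescence polarization of a Cy5 DNA probe bound by EBNA-1 protein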
[8] = molecular target: Lytic switch protein BZLF1 (Epstein-Barr virus (strain B95-8) (HHV-4) (Human herpesvirus 4), UniProt P03206); experiment: EBV ZTA inhibitors, dose response, counter-screen for EBNA-1 inhibitor project, biochemical, fluorescence polarization, Epstein-Barr virus, 1536-well (AID 2377); set-up: species or system human gammaherpesvirus 4;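 further: fluorescence polarization of Cy5-labelled ZRE DNA probe bound by purified Zta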
[9] = microbe, parasite or virus in culture; type: functional; settings: Mycobacterium tuberculosis
cells = type: functional
[10] = HeLa 2N DNA content increase, dose response, cell-based, IC50 (AID 1117349); type: functional
[11] = Dose-response inhibition of insulin secretion in a rat insulinoma line at 5 mM glucose (AID 1117331); type: functional, cell-based; settings: INS-1E
[12] = HeLa 4N DNA content increase, dose response, cell-based, IC50 (AID 1117351); type: functional

Sequence of Aryl hydrocarbon receptor (P35869 whole entry): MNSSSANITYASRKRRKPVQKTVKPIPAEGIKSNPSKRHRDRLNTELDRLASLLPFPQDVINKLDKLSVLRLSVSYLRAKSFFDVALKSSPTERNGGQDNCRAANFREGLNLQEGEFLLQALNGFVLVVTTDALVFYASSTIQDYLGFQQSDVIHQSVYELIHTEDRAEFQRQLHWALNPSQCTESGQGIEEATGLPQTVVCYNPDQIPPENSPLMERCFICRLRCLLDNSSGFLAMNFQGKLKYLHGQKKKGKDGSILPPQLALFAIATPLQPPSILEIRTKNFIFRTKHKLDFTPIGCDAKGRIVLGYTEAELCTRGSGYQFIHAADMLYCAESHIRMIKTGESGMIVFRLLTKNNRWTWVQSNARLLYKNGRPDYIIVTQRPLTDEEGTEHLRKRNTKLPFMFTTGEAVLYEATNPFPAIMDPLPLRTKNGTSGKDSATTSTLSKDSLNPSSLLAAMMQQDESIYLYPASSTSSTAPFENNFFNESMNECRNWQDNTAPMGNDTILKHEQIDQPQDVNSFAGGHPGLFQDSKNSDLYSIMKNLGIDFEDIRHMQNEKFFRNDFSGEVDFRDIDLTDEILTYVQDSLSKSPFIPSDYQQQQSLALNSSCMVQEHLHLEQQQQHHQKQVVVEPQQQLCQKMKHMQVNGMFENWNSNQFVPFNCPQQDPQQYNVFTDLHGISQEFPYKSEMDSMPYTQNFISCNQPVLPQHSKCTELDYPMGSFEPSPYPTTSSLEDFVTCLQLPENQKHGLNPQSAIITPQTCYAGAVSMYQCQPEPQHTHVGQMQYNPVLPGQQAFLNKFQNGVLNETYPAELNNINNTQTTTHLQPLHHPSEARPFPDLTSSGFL
Sequence of Peroxisome proliferator-activated receptor gamma/Nuclear receptor corepressor 2 (P37231 whole entry): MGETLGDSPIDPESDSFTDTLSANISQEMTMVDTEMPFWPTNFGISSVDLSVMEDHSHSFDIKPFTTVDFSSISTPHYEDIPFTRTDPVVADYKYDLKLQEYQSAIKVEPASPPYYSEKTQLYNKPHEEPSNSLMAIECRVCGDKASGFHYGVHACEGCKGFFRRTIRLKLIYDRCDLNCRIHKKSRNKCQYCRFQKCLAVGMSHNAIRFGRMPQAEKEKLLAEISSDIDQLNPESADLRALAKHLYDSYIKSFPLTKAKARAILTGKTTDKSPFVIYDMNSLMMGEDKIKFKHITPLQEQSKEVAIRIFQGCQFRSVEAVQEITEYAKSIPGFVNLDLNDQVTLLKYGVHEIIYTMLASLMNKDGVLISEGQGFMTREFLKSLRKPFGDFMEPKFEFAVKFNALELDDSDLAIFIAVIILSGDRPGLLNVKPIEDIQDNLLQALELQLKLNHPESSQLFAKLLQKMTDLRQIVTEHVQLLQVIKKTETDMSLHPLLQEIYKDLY
Sequence of Peroxisome proliferator-activated receptor gamma/Nuclear receptor corepressor 2 (Q9Y618 whole entry): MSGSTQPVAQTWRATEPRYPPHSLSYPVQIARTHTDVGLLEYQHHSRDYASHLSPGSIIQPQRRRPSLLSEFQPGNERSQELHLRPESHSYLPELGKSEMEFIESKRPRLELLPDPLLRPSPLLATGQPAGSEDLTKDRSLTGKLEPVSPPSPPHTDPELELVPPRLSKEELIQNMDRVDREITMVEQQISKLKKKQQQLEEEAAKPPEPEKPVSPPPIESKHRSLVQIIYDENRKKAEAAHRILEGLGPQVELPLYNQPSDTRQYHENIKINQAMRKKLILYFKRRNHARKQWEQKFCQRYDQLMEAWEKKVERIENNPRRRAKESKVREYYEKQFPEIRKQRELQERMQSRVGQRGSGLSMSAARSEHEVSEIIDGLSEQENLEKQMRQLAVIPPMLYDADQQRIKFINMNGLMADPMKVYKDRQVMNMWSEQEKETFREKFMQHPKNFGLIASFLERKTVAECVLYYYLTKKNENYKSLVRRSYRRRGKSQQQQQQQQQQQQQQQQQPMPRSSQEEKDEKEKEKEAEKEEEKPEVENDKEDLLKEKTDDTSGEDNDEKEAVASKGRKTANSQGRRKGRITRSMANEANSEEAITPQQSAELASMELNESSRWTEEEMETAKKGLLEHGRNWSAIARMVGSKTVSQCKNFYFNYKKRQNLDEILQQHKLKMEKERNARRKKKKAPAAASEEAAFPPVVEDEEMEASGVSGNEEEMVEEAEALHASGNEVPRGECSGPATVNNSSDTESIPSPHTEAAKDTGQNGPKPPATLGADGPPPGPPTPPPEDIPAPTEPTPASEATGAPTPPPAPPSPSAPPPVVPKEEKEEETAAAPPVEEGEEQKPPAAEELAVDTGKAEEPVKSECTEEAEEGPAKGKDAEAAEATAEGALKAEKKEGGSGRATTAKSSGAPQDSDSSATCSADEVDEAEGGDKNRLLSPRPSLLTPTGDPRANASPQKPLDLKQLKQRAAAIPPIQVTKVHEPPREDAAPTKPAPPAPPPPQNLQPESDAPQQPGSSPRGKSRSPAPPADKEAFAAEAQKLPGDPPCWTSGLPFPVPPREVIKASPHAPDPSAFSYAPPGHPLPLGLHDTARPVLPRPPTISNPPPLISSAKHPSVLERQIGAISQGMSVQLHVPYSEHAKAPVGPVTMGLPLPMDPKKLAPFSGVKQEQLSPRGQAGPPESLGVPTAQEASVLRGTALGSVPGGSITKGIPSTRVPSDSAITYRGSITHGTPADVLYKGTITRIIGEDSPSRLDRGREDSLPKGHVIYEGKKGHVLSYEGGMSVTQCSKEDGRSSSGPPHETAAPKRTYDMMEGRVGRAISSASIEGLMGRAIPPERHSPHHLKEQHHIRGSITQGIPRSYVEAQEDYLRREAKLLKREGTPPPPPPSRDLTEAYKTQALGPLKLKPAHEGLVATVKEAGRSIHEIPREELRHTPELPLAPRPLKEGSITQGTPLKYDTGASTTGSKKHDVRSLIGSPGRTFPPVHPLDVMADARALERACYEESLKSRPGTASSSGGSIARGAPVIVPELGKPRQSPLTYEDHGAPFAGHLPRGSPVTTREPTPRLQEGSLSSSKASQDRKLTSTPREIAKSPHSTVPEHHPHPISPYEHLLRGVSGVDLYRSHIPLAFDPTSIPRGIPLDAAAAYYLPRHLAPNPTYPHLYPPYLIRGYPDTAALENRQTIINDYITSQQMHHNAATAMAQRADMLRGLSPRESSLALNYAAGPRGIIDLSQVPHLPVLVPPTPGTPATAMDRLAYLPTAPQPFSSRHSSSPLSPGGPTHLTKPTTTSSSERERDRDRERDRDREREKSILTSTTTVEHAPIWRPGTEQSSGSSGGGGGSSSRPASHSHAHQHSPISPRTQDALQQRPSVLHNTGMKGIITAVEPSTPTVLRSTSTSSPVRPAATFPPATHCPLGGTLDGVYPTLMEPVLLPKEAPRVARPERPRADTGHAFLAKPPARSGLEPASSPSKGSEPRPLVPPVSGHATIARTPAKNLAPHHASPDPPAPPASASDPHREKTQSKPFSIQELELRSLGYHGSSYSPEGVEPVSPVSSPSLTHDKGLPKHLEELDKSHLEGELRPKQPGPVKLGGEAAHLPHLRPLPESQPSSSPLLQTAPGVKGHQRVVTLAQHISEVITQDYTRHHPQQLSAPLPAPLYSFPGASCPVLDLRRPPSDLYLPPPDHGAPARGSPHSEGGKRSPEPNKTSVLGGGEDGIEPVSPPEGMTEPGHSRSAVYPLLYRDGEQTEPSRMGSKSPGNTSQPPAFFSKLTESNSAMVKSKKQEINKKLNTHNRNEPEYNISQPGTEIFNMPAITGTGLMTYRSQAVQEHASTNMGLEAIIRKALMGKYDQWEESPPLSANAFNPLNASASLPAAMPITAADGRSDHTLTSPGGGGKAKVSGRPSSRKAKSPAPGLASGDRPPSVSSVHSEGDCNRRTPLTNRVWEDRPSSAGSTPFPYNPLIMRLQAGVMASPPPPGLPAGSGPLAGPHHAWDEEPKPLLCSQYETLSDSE
Sequence of Epstein-Barr nuclear antigen 1 (P03211 whole entry): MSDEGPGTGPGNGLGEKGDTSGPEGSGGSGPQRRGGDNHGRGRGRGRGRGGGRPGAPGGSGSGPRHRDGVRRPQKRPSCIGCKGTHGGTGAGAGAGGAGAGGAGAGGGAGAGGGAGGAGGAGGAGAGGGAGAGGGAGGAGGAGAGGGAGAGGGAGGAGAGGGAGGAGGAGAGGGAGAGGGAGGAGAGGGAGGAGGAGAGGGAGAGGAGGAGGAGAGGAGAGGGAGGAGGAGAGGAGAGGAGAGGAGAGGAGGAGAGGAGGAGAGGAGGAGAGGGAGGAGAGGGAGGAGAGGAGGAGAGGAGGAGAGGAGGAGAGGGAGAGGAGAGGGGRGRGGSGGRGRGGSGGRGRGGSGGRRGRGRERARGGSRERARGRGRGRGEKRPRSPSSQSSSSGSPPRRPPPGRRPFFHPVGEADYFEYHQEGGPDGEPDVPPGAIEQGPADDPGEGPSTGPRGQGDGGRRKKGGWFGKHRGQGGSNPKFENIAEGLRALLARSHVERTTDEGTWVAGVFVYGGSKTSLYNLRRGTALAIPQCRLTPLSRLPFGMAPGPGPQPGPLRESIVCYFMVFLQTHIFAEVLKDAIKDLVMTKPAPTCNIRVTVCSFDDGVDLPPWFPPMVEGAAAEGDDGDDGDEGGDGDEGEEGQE
Sequence of Cytochrome P450 3A4 (P08684 whole entry): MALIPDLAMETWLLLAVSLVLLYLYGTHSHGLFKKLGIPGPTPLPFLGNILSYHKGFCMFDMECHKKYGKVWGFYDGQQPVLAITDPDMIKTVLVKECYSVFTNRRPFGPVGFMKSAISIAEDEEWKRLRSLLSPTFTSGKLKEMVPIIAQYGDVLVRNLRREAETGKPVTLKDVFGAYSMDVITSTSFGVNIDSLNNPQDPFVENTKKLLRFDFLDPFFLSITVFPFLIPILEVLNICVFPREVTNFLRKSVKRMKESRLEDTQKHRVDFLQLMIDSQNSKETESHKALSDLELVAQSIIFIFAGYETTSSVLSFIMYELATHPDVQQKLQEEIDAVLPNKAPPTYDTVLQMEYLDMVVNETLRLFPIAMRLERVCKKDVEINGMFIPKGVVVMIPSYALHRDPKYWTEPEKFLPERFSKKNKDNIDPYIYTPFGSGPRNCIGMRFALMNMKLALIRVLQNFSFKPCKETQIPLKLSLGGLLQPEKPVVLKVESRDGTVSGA

Which results are given for COc1ccc(/N=C/C2=C(O)c3ccccc3CC2)cc1?
IC50 [1]: > 100 µM (active); IC50 [2]: < 0.391 µM (not active); EC50 (Protein RecA): 18.6 µM (active)

Which AC50 (Cytochrome P450 2C19) does the source give for CCC/C=C/C1C(=O)C2OC2C2(OCC(CC)(CC)CO2)C1CO (centres undefined) here?
Its AC50 is 0.004 µM (inconclusive).

And the AC50 (Cytochrome P450 3A4)?
The AC50 was 3.98 µM (inconclusive).

Which IC50 [1] does the source give for O=C(Nc1ccccc1Cl)Oc1ccc2ccccc2c1 here?
Its IC50 is > 100 µM (active).

With O=C(NC1CCCC1)c1cc2c(ccc3ccccc32)o1 as the compound, how does the EC50 [3] read?
The EC50 was 1.94 µM (active).

And the EC50 (H4)?
Its EC50 is 24.1 µM (active).

And the EC50 [4]?
The EC50 was 2.8 µM (active).

Which IC50 [5] does the source give for CS(=O)(=O)N(CC(=O)NC1CCCCC1)Cc1ccc(F)cc1 here?
Its IC50 is > 39.8 µM (not active).

What about the IC50 [6] of the same compound?
Its IC50 is > 39.8 µM (not active).

For COc1ccc(-n2c(SCC(=O)NCC3CCCO3)nc3c4ccccc4nc-3c2O)cc1 (centres undefined), which IC50 [7] is on record?
Its IC50 is 9.89 µM (active).

What about the IC50 [8] of the same compound?
The IC50 was > 111 µM (not active).

With O=[N+]([O-])c1cnc(Nc2ccc(Cl)cn2)c([N+](=O)[O-])c1 as the compound, how does the CC50 [9] read?
The CC50 was > 40 µM (active).

What about the EC50 [4] of the same compound?
Its EC50 is 1.29 µM (active).

And the IC50 (cells)?
The IC50 was 4.17 µM (active).

With CCN(CC)CCNC(=O)C1C(C)=NC(/C=C2\C(=O)Nc3ccc(F)cc32)=C1C (centres undefined) as the compound, how does the IC50 [10] read?
The IC50 was > 10 µM (inactive).

What about the IC50 [11] of the same compound?
The IC50 was > 33.3 µM (inactive).

What about the IC50 [12] of the same compound?
Its IC50 is > 10 µM (inactive).
